Where “and” joins values, the source holds several entries; their conditions need not be identical. Equal values may be shown once. Entries after “also recorded” stand apart in the source; their conditions may differ. Read-outs that look alike come from different tables or passages of the source.
How the values were obtained:
cortical neurons [1] = details: for protection from neuronal cell death (morphology): 5 μM, hypoxia
Method: Experiments were performed in a 96-well plate format. Cortical neurons were seeded at a density of 50,000 cells/well on a poly-D-lysine coated surface, and cultured in serum-free medium (NB plus B27 supplement) to obtain cultures highly enriched for neurons. Neurons were cultured for over 14 d.i.v. to increase cell susceptibility to excitatory amino acids (Jiang et al., 2001). Six replicate wells were treated as a group to facilitate assay quantitation.
Treatment with drug was continued during and subsequent to a 24-hour period of hypoxia. Cellular morphology and function (MTS and LDH assays) were measured 24 or 48 hours subsequent to the hypoxic insult.
The MTS assay is a colorimetric assay that measures the mitochondrial function in metabolically active cells. This measurement indirectly reflects cell viability. […] 20 μl of MTS reagent (Promega) are added to each well of the 96 well assay plates containing the samples in 100 μl of culture medium. The plate is then incubated in a humidified, 5% CO2 atmosphere at 37° C. for 1-2 hours until the color is fully developed. The absorbance at 490 nm was recorded using a Bio-Rad 96 well plate reader.
The lactate dehydrogenase (LDH) assay is based on the reduction of NAD by the action of LDH. The resulting reduced NAD (NADH) is utilized in the stoichiometric conversion of a tetrazolium dye. If cell-free aliquots of medium from cultures given different treatments are assayed, then the amount of LDH activity can be used as an indicator of relative cell death as well as a function of membrane integrity. A 50 μl aliquot of culture medium from a well in tested 96-well plate is transferred into a well in unused plate and supplemented with 25 μl of equally-mixed Substrate, Enzyme and Dye Solutions (Sigma). The preparation is incubated at room temperature for 20-30 minutes, and then measured spectrophotometrically at wavelength of 490 nm.

primary cortical neurons [2] = experiment: Neuroprotection against H2O2-induced oxidative stress (MTS assay), comparison with known neuroprotectants; format: cell-based, rat; details: 24 h pre-treatment, harsh H2O2 treatment (150 μM)
Method: Twice, half the amount of medium was replaced with fresh neurobasal medium containing no antioxidants. […] The other known neuroprotectants were dissolved in appropriate solvents and diluted to the final concentrations as indicated. […] Each assay was performed in triplicate. After 24 hours, the cultures were evaluated for viability and mitochondrial function using a standard MTS Assay (Promega). The manufacturer's protocols were followed. Experiments were carried out in accordance with the above study design. […] Ginkgo biloba was dissolved in dH2O at a concentration of 6 mg/ml, and further diluted in the neurobasal medium to final concentrations of 2.5 μ/ml, 5 μg/ml, 25 μg/ml, and 250 μg/ml. […] The plates were returned to the incubator at 37° C. with 5% CO2 for one hour. Subsequently, 20 μl MTS reagent was added to each well and the plates were incubated at 37° C. with 5% CO2 for an additional two hours. The absorbance at 490 nm for each well was recorded with the BioRad plate reader (Model 550). Wells containing medium alone were used as blanks. Each data point is the average of three separate assay wells. […] Two-week-old primary cultures were used for this set of study.

primary cortical neurons [3] = experiment: ROS generation in neuronal cells (c-DCF fluorescence); format: cell-based, rat; details: 10 μM
Method: Twice, half the amount of medium was replaced with fresh neurobasal medium without antioxidants. […] Untreated cells loaded with the dye were used as controls to calculate the c-DCF fluorescence change. Each assay was performed in triplicate. The c-DCF fluorescence at 485/520 nm (Ex/Em) for each well was recorded with the BMG Polar Star plate reader. Wells containing cells without dye were used as blanks. Each data point is the average of three separate assay wells. Untreated cells loaded with the dye were used as a control to calculate the c-DCF fluorescence change. Two-week-old primary cultures were used for the study. CM-H2DCFDA is a cell-permeant indicator for reactive oxygen species (ROS), which is non-fluorescent until the acetate groups are removed by intracellular esterases and oxidation occurs within the cell. It has been widely employed to detect the generation of ROS in cells and animals. Here, it has been used as a tool to assess the effects of PAN-811 on ROS generation in neuronal cells following the procedures described in this example. […] Experiments were repeated four times in different batches of cells and similar results were obtained. See FIG. 2 for the representative experiment.

primary cortical neurons [4] = experiment: Protection of neurons from H2O2-induced oxidative stress (60-70 μM H2O2, MTS assay); format: cell-based, rat; details: 1-10 μM, 24 h pre-treatment, H2O2 60-70 μM
Method: Twice, half amount of medium was replaced with fresh neurobasal medium containing no antioxidants. […] Each assay was performed in triplicate. […] After 24 hours, the cultures were evaluated for viability and mitochondrial function using a standard MTS Assay (Promega). The manufacturer's protocols were followed. […] The plates were put back into the incubator at 37° C. with 5% CO2 for one hour, then 20 μl MTS reagent was added to each well and plates were incubated at 37° C. with 5% CO2 for an additional two hours. The absorbance at 490 nm for each well was recorded with the BioRad plate reader (Model 550). Wells containing media alone were used as blanks. Each data point is the average of three separate assay wells. […] Three-week-old primary cultures were used for this set of study. Experiments were carried out following the same procedures as experiment 1. Two-week-old primary cultures were used for this study.

[5] = system: male Sprague-Dawley rats, middle cerebral artery occlusion
[6] = Solubility of PAN-811 in solvents; details: PEG-300/EtOH vs EtOH
[7] = system: enriched neuronal cultures (cerebellar tissue); experiment: Neurotoxicity of PAN-811, 24 h treatment (MTT assay); details: highest concentration tested (100 μM)
Method: Enriched neuronal cultures were prepared from 15-day-old Sprague-Dawley rat embryos. Using aseptic techniques, the rat embryos were removed from the uterus and placed in sterile neuronal culture medium. Using a dissecting microscope, the brain tissue was removed from each embryo, with care taken to discard the meninges and blood vessels. The cerebellum was separated by gross dissection under the microscope, and only cerebellar tissue was used for the culture. Cells were dissociated by trituration of the tissue and were plated at a density of 5×10^5 cells/well onto 48-well culture plates precoated with poly(L-lysine). […]
Cells were treated with varying amounts of PAN-811 (0-100 μM) for 24 hrs. Cell viability was determined in the MTT assay.
Cell damage was quantitatively assessed using a tetrazolium salt colorimetric assay with 3-(4,5-dimethylthiazol-2-yl)-2,5-diphenyltetrazolium (MTT; Sigma Chemical Co., St. Louis, Mo.). Briefly, the dye was added to each well (final concentration, 1.5 mg/ml), cells were incubated with MTT-acidified isopropanol (0.1 N HCl in isopropanol), and the absorbance intensity (540 nm) of each sample was measured in a 96-well plate reader. Values are expressed relative to vehicle-treated control cells that were maintained on each plate, and the percentage change in cell viability was calculated.

cortical neurons [8] = experiment: Extreme hypoxia/hypoglycemia (H/H) model, 0.4 mM glucose
Method: (§1) Experiments were performed in a 96-well plate format. Cortical neurons were seeded at a density of 50,000 cells/well on a poly-D-lysine coated surface, and cultured in serum-free medium (NB plus B27 supplement) to obtain cultures highly enriched for neurons. […] Six replicate wells were treated as a group to facilitate assay quantitation.
(§2) The extreme H/H model (0.4 mM glucose) is a mimic of the environment in the central core of an infarct; the mild H/H model (1.63 mM glucose) is a mimic of the environment in the penumbra during MCAO; and the hypoxia only model (neurons in normal in vitro glucose concentration—25 mM) is a mimic of the environment in the penumbra after reperfusion since the possible cell death after reperfusion is predominantly a result of the hypoxic effect rather then energy failure.
Hypoxia/hypoglycemia was obtained by reducing glucose concentration down to 0.4 mM and 1.63 mM for extreme H/H and mild H/H, respectively. […] The level of O2 in the chamber was determined to be zero with an O2 indicator (FYRITE Gas Analyzer, Bacharach, Inc.). […] Mitochondrial function and cell death were evaluated at 24 or 48 hours post H/H insult with the MTS and LDH analyses (see below).
The MTS assay is a colorimetric assay that measures the mitochondrial function in metabolically active cells. […] The absorbance at 490 nm was recorded using a Bio-Rad 96 well plate reader. […]

cortical neurons [9] = details: for protection (Comments): 24 h pre-treatment, 6 h H/H, 24 h post, culture age 15 days, test range started from 5 μM
Method: as §1, §2
Hypoxia/hypoglycemia was obtained by reducing glucose concentration down to 0.4 mM and 1.63 mM for extreme H/H and mild H/H, respectively. BSS (116.0 mM NaCl, 5.4 mM KCl, 0.8 mM MgSO4.e7H20, 1.0 mM NaH2PO4, 1.8 mM CaCl2.2H2O, 26.2 mM NaHCO3, and 0.01 mM glycine) or BSS with 25 mM glucose were de-gassed for 5 minutes prior to use. Culture medium in the plates for hypoxia was replaced with BSS or BSS with glucose. Meanwhile, culture medium in the plates for normoxia was replaced with non de-gassed BSS or BSS with glucose. Cells were committed to hypoxic conditions by transferring the plates into a sealed container (Modular Incubator Chamber-101™, Billups-Rothenberg, Inc.), applying a vacuum for 20 minutes to remove oxygen or other gases from the culture medium, and then refilling the chamber with 5% CO2 and 95% N2 at a pressure of 30 psi for 1 minute. The level of O2 in the chamber was determined to be zero with an O2 indicator (FYRITE Gas Analyzer, Bacharach, Inc.). Culture plates were maintained in the chamber for 6 hours. As an experimental control, duplicate culture plates were maintained under normal culture condition (5% CO2 and 95% ambient air) for the same duration. After a 6-hour treatment, plates were removed from the chamber and the medium in both the hypoxic and normoxic cultures was replaced with a termination solution (DMEM supplemented with 1×sodium pyruvate, 10.0 mM HEPES, and 1×N2 supplement) containing 25 mM glucose and cultured in 5% CO2 and 95% ambient air conditions. […] MK801 was utilized as a positive control. Mitochondrial function and cell death were evaluated at 24 or 48 hours post H/H insult with the MTS and LDH analyses (see below).
The MTS assay is a colorimetric assay that measures the mitochondrial function in metabolically active cells. This measurement indirectly reflects cell viability. […] The absorbance at 490 nm was recorded using a Bio-Rad 96 well plate reader. […]

[10] = system: co-cultured cortical and striatal neurons; experiment: Protection from Aβ1-42 or Aβ25-35 induced neurotoxicity (morphology, LDH, MTS)
Method: Experiments were performed in a 96-well plate format. Cortical neurons were seeded at a density of 50,000 cells/well on poly-D-lysine coated surface, and cultured in serum-free medium (NB plus B27 supplement containing AO or without AO) to obtain cultures high enriched for neurons. Neurons were cultured for over 14 d.i.v. to increase cell susceptibility to excitatory amino acids (Jiang et al., 2001, supra). Three to six replicate wells were treated as a group to facilitate assay quantitation.
Lyophilized Aβs were dissolved in de-ionized and distilled water to a final concentration of 400 μM, and aliquoted and stored at −20° C. Before use, an aliquot of Aβ was removed from freezer and incubated at 37° C. for 48 hours. Neurons were cultured in NB with B27 supplement containing AO or without AO under 5% CO2 and 95% ambient air, 37° C. At 2 or 3 weeks, the neurons were treated with pre-incubated Aβ and either non-incubated Aβ or Aβ35-25 served as experimental controls.
Treatment with 2μM PAN-811 or 1:12,500 PEG:EtOH (7:3 as vehicle control) was started by at most 3 hours following Aβ insult. The neurons remained in culture post-treatment for different time periods, from 1 to 16 days.
Neuronal cell death was morphologically evaluated.
The MTS assay is a colorimetric assay that measures the mitochondrial function in metabolically active cells. This measurement indirectly reflects cell viability. […] 10 μl of MTS reagent (Promega) are added to each well of the 96 well assay plates containing the samples in 50 μl of culture medium. The plate is then incubated in a humidified, 5% CO2 atmosphere at 37° C. for 1 hour until the color is fully developed. The absorbance at 490 nm was recorded using a Bio-Rad 96 well plate reader.
Lactate dehydrogenase (LDH) assay is based on the reduction of NAD by the action of LDH. The resulting reduced NAD (NADH) is utilized in the stoichiometric conversion of a tetrazolium dye. If cell-free aliquots of medium from cultures given different treatments are assayed, then the amount of LDH activity can be used as an indicator of relative cell death as well as a function of membrane integrity. A 35μl aliquot of culture medium from a well in a 96-well test plate is transferred into a well in unused plate and supplemented with 17.5 μl of equally mixed Substrate, Enzyme and Dye Solutions (Sigma). The preparation is incubated at room temperature for 30 minutes, and then measured spectrophotometrically at a wavelength of 490 nm.
Primary neurons were isolated from cortex and striatum of 17-day-old rat embryonic brain and seeded on 96-well plates at 50,000 cells/well in regular neurobasal medium (Neurobasal Medium supplemented with B27-AO) for 2-3 weeks.
Lyophilized Aβ1-42 and Aβ25-35 were dissolved in distilled, deionized water to a final concentration of 400 uM. Aliquots of the preparations were stored at −20° C. The day before the experiment, the peptides were shifted from −20° C. to 37° C. and incubated overnight at 37° C.
The neurons at 12-16 d.i.v. and 21-23 d.i.v. were insulted by adding 2.5 ul per well of either 400 uM Aβ1-42 or 400 uM Aβ25-35 (final concentration: 10 uM). Untreated and Aβ35-25-treated wells were taken as negative controls and 25 uM glutamate treated wells were set as the positive control. At the same time as or 2-3 hours after the initiation of Aβ insults, 1:5000 diluted PEG:EtOH (vehicle for PAN-811) as well as PAN-811 at concentrations of 0.25, 05., 1 and 2 μM were added to the Aβ insulted wells. The neurons were continuously incubated at 37° C., 5% CO2. Data were obtained from the readings of 3-6 replicate wells.

[11] = system: enriched neuronal cultures (cerebellar tissue); experiment: In vitro models of excitotoxicity (H/H, glutamate, staurosporine, veratridine), MTT assay
Method: Enriched neuronal cultures were prepared from 15-day-old Sprague-Dawley rat embryos. Using aseptic techniques, the rat embryos were removed from the uterus and placed in sterile neuronal culture medium. Using a dissecting microscope, the brain tissue was removed from each embryo, with care taken to discard the meninges and blood vessels. The cerebellum was separated by gross dissection under the microscope, and only cerebellar tissue was used for the culture. Cells were dissociated by trituration of the tissue and were plated at a density of 5×10^5 cells/well onto 48-well culture plates precoated with poly(L-lysine). Cultures were maintained in a medium containing equal parts of Eagle's basal medium (without glutamine) and Ham's F-12k medium supplemented with 10% heat-inactivated horse serum, 10% fetal bovine serum, 600 μg/ml glucose, 100 μg/ml glutamine, 50 U/ml penicillin, and 50 μg/ml streptomycin. After 48 h, 10 μM cytosine arabinoside was added to inhibit non-neuronal cell division. Cells were used in experiments after 7 days in culture.
Four in vitro models of excitotoxicity were studied. Cells were either exposed to H/H conditions for 3 hrs or treated for 45 min with one of glutamate (100 μM), staurosporine (1 μM) or veratridine (10 μM). All cells were co-treated with or without PAN-811 (10 μM) in Locke's solution. At the conclusion of the respective excitotoxic exposures, the condition medium (original) was replaced. H/H was induced by incubating the cells in a humidified airtight chamber saturated with 95% nitrogen, 5% CO2 gas for 3 hrs in Locke's solution without added glucose.
Twenty-four hours after the excitotoxic insult, cell viability assessments were made. Cell damage was quantitatively assessed using a tetrazolium salt colorimetric assay with 3-(4,5-dimethylthiazol-2-yl)-2,5-diphenyltetrazolium (MTT; Sigma Chemical Co., St. Louis, Mo.). Briefly, the dye was added to each well (final concentration, 1.5 mg/ml), cells were incubated with MTT-acidified isopropanol (0.1 N HCl in isopropanol), and the absorbance intensity (540 nm) of each sample was measured in a 96-well plate reader. Values are expressed relative to vehicle-treated control cells that were maintained on each plate, and the percentage change in cell viability was calculated.

[12] = system: primary neurons from cortex and striatum; experiment: Neurotoxicity of Aβ peptides (morphology, LDH, MTS); format: cell-based, rat; details: for increase in LDH of the culture medium: 10 uM peptide, 16 day post-insult, neurons 12-16 d.i.v., 0% AO
[13] = 2 μM, 100% +AO, 1 day post-insult
[14] = 10 uM, 1-6 days post-insult, older neurons (21-23 d.i.v.), 90% AO

Question: With `C[C@]12N[C@H](Cc3ccccc31)c1ccccc12` [MK801, reference compound] as the compound, how does the “protection from neuronal cell death (morphology)” value (cortical neurons [1]) read?
Answer: efficient protection from neuronal cell death

Question: With `NC(=S)N/N=C/c1ncccc1N` [PAN-811, 3-aminopyridine-2-carboxaldehyde thiosemicarbazone] as the compound, how does the neuroprotective capacity (primary cortical neurons [2]; PAN-811 1-10 μM) read?
Answer: good neuroprotective capacity; also recorded: significant neuroprotection

Question: What about the “reduction of basal level of ROS generation” value (primary cortical neurons [3]) of the same compound?
Answer: ~50%

Question: What about the “reduction of H2O2-induced ROS generation” value (primary cortical neurons [3]; 1 h, then 300 μM H2O2 for 2 h) of the same compound?
Answer: ~30%

Question: And the neuroprotective capacity (primary cortical neurons [4])?
Answer: good neuroprotective capacity

Question: What about the “protection from neuronal cell death (morphology)” value (cortical neurons [1]) of the same compound?
Answer: efficient protection from neuronal cell death

Question: What about the “neuronal cell death after hypoxia” value (cortical neurons [1]; 21 μM, 48 h prior, during 24-h hypoxia and 48 h after) of the same compound?
Answer: completely blocked the cell death

Question: What about the “Infarct volume, range” value ([5]; 1 mg/kg IV 10 minutes prior to MCAO) of the same compound?
Answer: 42.36-387.08 mm^3

Question: And the “Infarct Volume (individual rat)” value ([5]; 1 mg/kg IV 10 minutes prior to MCAO, 24 hours after surgery)?
Answer: 42.36 mm^3 and 126.42 mm^3 and 143.74 mm^3 and 158.83 mm^3 and 196.18 mm^3 and 200.08 mm^3 and 218.54 mm^3 and 221.46 mm^3 and 224.32 mm^3 and 255.36 mm^3 and 267.40 mm^3 and 344.47 mm^3 and 375.59 mm^3 and 387.08 mm^3

Question: What about the “Infarct Volume, mean” value ([5]; 1 mg/kg IV 10 minutes prior to MCAO, 24 hours after surgery, n 14) of the same compound?
Answer: 225.85 mm^3

Question: And the rats that died ([5]; of the 7 rats that died (4 severe strokes, 3 with SAH), 6 were vehicle rats)?
Answer: 1

Question: What about the tolerability ([5]; rat, in vivo) of the same compound?
Answer: well tolerated and relatively non-toxic

Question: And the solubility [6]?
Answer: better solubility in PEG-300/EtOH comparing to EtOH alone

Question: What about the maximal toxicity [7] of the same compound?
Answer: 7.8%

Question: What about the “extreme H/H-induced neuronal cell death” value (cortical neurons [8]; 100 μM) of the same compound?
Answer: only partially blocked

Question: What about the “protection from neuronal cell death” value (cortical neurons [8]; ≦50 μM, extreme H/H) of the same compound?
Answer: did not protect neuronal cell death

Question: What about the “protection from mild H/H induced neurotoxicity” value (cortical neurons [9]; 2 μM) of the same compound?
Answer: completely protected

Question: What about the “protection from H/H-induced mitochondria dysfunction and neuronal cell death” value (cortical neurons [9]; 5 μM, 24 h before and during 6-h H/H, MTS and LDH 17 h post insult) of the same compound?
Answer: completely protected

Question: What about the “protection (Comments)” value (cortical neurons [9]; 5 μM) of the same compound?
Answer: 5 μM: 100% protected

Question: What about the “protection (Comments)” value (cortical neurons [9]; 10 μM) of the same compound?
Answer: 10 μM: 100% protected

Question: What about the “protection from Aβ25-35 induced neuronal cell death, 3-week old neurons” value ([10]; 2 μM post-treatment (2 or 3h later), 10 μM Aβ25-35, 90% AO) of the same compound?
Answer: well protected; also recorded: fully block

Question: What about the “MTS reading, 7-week-old mixed neurons” value [10, 13] of the same compound?
Answer: slight reduction in the MTS reading

Question: What about the “morphology of neurons, 7-week-old mixed neurons” value [10, 13] of the same compound?
Answer: well preserved the morphology of neurons

Question: And the “protection from neuronal cell death (morphology monitoring)” value ([10]; 2μM, Aβ insult)?
Answer: efficient protection from neuronal cell death

Question: And the “neuronal and neurite morphologies, younger neurons” value ([10]; 2 μM, at the same time as or 3 hours after Aβ1-42 or Aβ25-35 insult, 12-16 days, 0% AO)?
Answer: well preserved neuronal and neurite morphologies

Question: And the “Aβ1-42 or Aβ25-35 induced neurotoxicity, younger neurons” value ([10]; 2 μM, neurons 12-16 d.i.v. (2-week old), 0% AO, 10 uM Aβ)?
Answer: fully block; also recorded: well protected

Question: And the “LDH reading, younger neurons” value ([10]; 2 μM, same time or 2-3 hours post Aβ1-42 or Aβ25-35, day 16, 0% AO)?
Answer: down to a level lower than untreated (control) group

Question: What about the “neuronal and neurite morphologies, older neurons” value ([10]; 0.25-2 uM, same time as or 2-3 hour after Aβ insult, 90% AO, 1-6 days) of the same compound?
Answer: well preserved neuronal and neurite morphologies

Question: What about the “MTS reading, older neurons” value ([10]; 0.25 to 1 μM, 3 hours after initiation of Aβ25-35 insult, 90% AO) of the same compound?
Answer: up to control level

Question: What about the “Aβ1-42 and Aβ25-35 induced neurotoxicity, older neurons” value ([10]; 0.25 to 2 μM, neurons 21-23 d.i.v., 90% AO) of the same compound?
Answer: fully blocked

Question: And the “lowest dose giving full protection” value ([10]; administered 3 hours after initiation of Aβ25-35 insult)?
Answer: 0.25 µM

Question: And the “protection from damage by 3-hour hypoxia/hypoglycemia” value ([11]; 10 μM PAN-811)?
Answer: 92%

Question: And the “protection from 1 μM staurosporine” value ([11]; 10 μM PAN-811, 45 min insult)?
Answer: ~47%

Question: And the “protection from 10 μM veratridine” value ([11]; 10 μM PAN-811, 45 min insult)?
Answer: ~39%

Question: What about the “protection from 100 μM glutamate” value ([11]; 10 μM PAN-811, 45 min insult) of the same compound?
Answer: ~75%

Question: For Vitamin E [reference compound], which neuroprotective capacity (primary cortical neurons [2]; known neuroprotectants) is on record?
Answer: minimal neuroprotective capacity

Question: For `O=C(O)CCCC[C@@H]1CCSS1` (racemic) [lipoic acid, reference compound], which neuroprotective capacity (primary cortical neurons [2]; known neuroprotectants) is on record?
Answer: minimal neuroprotective capacity

Question: Which “increase in LDH of the culture medium” value [12] does the source give for “Aβ25-35: amyloid beta peptide fragment from Oncogene or Bachem, used as neurotoxic insult (GSNKGAIIGLM; Amyloid-beta protein 42; UniProt P05067 696-706, looked up, fragment)” here?
Answer: ~40%

Question: What about the “decrease in MTS reading” value [12, 14] of the same compound?
Answer: 7.5%

Question: What about the “increase in medium LDH reading” value [12, 14] of the same compound?
Answer: 12-18%

Question: What about the “concentration able to induce neurotoxicity” value ([12]; 100% AO) of the same compound?
Answer: 80 µM

Question: For “Aβ1-42: amyloid beta peptide (Aβ1-42) from Sigma, used as neurotoxic insult”, which “increase in LDH of the culture medium” value [12] is on record?
Answer: ~40%
